This is an account of results in PubChem BioAssay (NCI).

Some test systems named below: 786-0 renal; HCT-116 colon; HL-60(TB) leukemia; HOP-62 NSCLC; IGROV1 ovarian; K-562 leukemia; M14 melanoma; NCI-H522 lung; OVCAR-3 ovarian; SNB-19 CNS.
Common to all, as to test: NCI anticancer screen, dose series, 48 h

Each structure is given as a SMILES string.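 The compound was tested at five concentrations on cells cultured in 96-well plates, with a 48-hour exposure period. GI50 is the concentration that inhibits growth by half. TGI denotes the concentration required for complete inhibition of growth.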 Where only a bound is given, the exact number is not on record here.

`CNc1nc(-c2ccc3c(N)n[nH]c3c2)cc(N2C[C@@H](C(=O)NC3CCCCC3)CC[C@H]2C)n1`: the GI50 in the experiment with 786-0 renal was 3.28 µM; with HCT-116 colon, 4.4 µM; in the experiment with HL-60(TB) leukemia it was 2.68 µM; in the experiment on HOP-62 NSCLC it was 3.26 µM; with IGROV1 ovarian it was 2.45 µM; in the experiment with K-562 leukemia it was 3.78 µM. Further, the GI50 in the experiment with M14 melanoma was 3.02 µM; in the experiment on NCI-H522 lung, 4.52 µM; with OVCAR-3 ovarian it was 2.16 µM; in the experiment with SNB-19 CNS, 4.42 µM. Moreover, the TGI in the experiment with 786-0 renal was found to be 14.6 µM; in the experiment on HCT-116 colon, 18.8 µM; in the experiment with HL-60(TB) leukemia, 18.5 µM; in the experiment with HOP-62 NSCLC, 17.9 µM; in the experiment on IGROV1 ovarian it was 14.9 µM; with K-562 leukemia, 39 µM. Also, the TGI stood at 20.1 µM with M14 melanoma, 18.3 µM in the experiment with NCI-H522 lung, 15.6 µM in the experiment with OVCAR-3 ovarian and 18 µM in the experiment on SNB-19 CNS.

Turning to `N#CC(C#N)C(c1ccccc1)c1ccccc1`, the TGI in the experiment with 786-0 renal, with HCT-116 colon, in the experiment with HL-60(TB) leukemia, in the experiment on HOP-62 NSCLC, in the experiment on IGROV1 ovarian and with K-562 leukemia was above 100 µM throughout. Also, the TGI with M14 melanoma, with NCI-H522 lung, with OVCAR-3 ovarian and in the experiment with SNB-19 CNS was above 100 µM in each case.

`CCOC(=O)CC(C)C1(C=O)CCCCC1=O` (centres undefined): the TGI in the experiment on 786-0 renal, with HCT-116 colon, in the experiment with HL-60(TB) leukemia, in the experiment with HOP-62 NSCLC, in the experiment on IGROV1 ovarian and with K-562 leukemia was above 100 µM throughout. The TGI in the experiment on M14 melanoma, with NCI-H522 lung, with OVCAR-3 ovarian and in the experiment on SNB-19 CNS was above 100 µM each time.

Turning to `O=C(/C=C/c1ccc(Cl)cc1Cl)c1ccc(Cl)cc1Cl`, the GI50 is 22 µM in the experiment with 786-0 renal; 5.82 µM in the experiment with HCT-116 colon; 18.3 µM in the experiment with HL-60(TB) leukemia; 26.1 µM in the experiment with HOP-62 NSCLC; 22.3 µM in the experiment with IGROV1 ovarian; 10.4 µM in the experiment on K-562 leukemia. Besides, the figures for the GI50 in the experiment on M14 melanoma, in the experiment on OVCAR-3 ovarian and with SNB-19 CNS were 18.7 µM, 20.6 µM and 29 µM, respectively. The TGI with 786-0 renal was 61.8 µM; in the experiment on HCT-116 colon, 17.1 µM; in the experiment with HL-60(TB) leukemia it was 43.9 µM; with HOP-62 NSCLC, above 68.9 µM; in the experiment with IGROV1 ovarian, 55.8 µM; in the experiment with K-562 leukemia, 31.4 µM. Besides, the TGI in the experiment on M14 melanoma is 46.3 µM; in the experiment on NCI-H522 lung, 1.16 µM; in the experiment with OVCAR-3 ovarian, 48.1 µM; in the experiment with SNB-19 CNS, above 100 µM.

On to `CS(=O)(=O)CCNCc1ccoc1-c1ccc2ncnc(Nc3ccc(OCc4ccccc4)cc3)c2c1`, for which the GI50 with 786-0 renal is above 25 µM; with HCT-116 colon, above 25 µM; with HL-60(TB) leukemia, 24.4 µM; in the experiment with HOP-62 NSCLC it was above 25 µM; in the experiment with IGROV1 ovarian it was above 17 µM; with K-562 leukemia, 14.4 µM. Further, the GI50 in the experiment with M14 melanoma, in the experiment on NCI-H522 lung, with OVCAR-3 ovarian and with SNB-19 CNS was above 25 µM in each case. For the same compound, the TGI in the experiment with 786-0 renal, with HCT-116 colon, in the experiment on HL-60(TB) leukemia, with HOP-62 NSCLC, with IGROV1 ovarian and in the experiment on K-562 leukemia was above 25 µM throughout. The TGI with M14 melanoma, with NCI-H522 lung, in the experiment on OVCAR-3 ovarian and with SNB-19 CNS was above 25 µM throughout.

For the compound `CCCC(=O)OC(OC(=O)CCC)c1ccc([N+](=O)[O-])o1`, the TGI in the experiment with 786-0 renal is 36.5 µM; in the experiment with HCT-116 colon, 32.8 µM; in the experiment with HL-60(TB) leukemia it was 88.3 µM; in the experiment on HOP-62 NSCLC it was above 100 µM; in the experiment with IGROV1 ovarian, 28.3 µM; in the experiment on K-562 leukemia, above 100 µM. Moreover, the TGI in the experiment on M14 melanoma was 47.8 µM; in the experiment with NCI-H522 lung, 28.9 µM; in the experiment with OVCAR-3 ovarian, 41.4 µM; with SNB-19 CNS, above 100 µM.

For `COC(=O)[C@@H](C)C[C@H](Cc1ccccc1)NC(=O)c1csc([C@@H](C[C@H](C(C)C)N(C)C(=O)[C@@H](NC(=O)[C@H]2CCCCN2C)C(C(F)(F)F)C(F)(F)F)OC(C)=O)n1`, the GI50 is 0.0535 µM in the experiment on 786-0 renal; 0.057 µM with HCT-116 colon; 0.0134 µM in the experiment on HL-60(TB) leukemia; 0.0651 µM with HOP-62 NSCLC; 0.0666 µM with IGROV1 ovarian; 0.0124 µM with K-562 leukemia. Further, the GI50 with M14 melanoma is 0.0333 µM; in the experiment on NCI-H522 lung it was 0.0125 µM; with OVCAR-3 ovarian, 0.021 µM; in the experiment with SNB-19 CNS it was 0.0658 µM. In addition, the TGI in the experiment on 786-0 renal was 3.53 µM; in the experiment on HCT-116 colon, above 16.7 µM; in the experiment on HL-60(TB) leukemia it was 0.115 µM; in the experiment on HOP-62 NSCLC, above 16.7 µM; in the experiment with IGROV1 ovarian, above 16.7 µM; with K-562 leukemia it was above 16.7 µM. Further, the TGI in the experiment on M14 melanoma was 0.115 µM; with NCI-H522 lung, 0.264 µM; with OVCAR-3 ovarian, 0.253 µM; in the experiment on SNB-19 CNS, above 16.7 µM.

Regarding `O=S(=O)(Nc1ccc(Cl)c(Cl)c1)c1ccc(-c2cnc(C3CC3)o2)cc1`, the GI50 in the experiment on 786-0 renal was 0.668 µM; in the experiment with HCT-116 colon, 0.458 µM; in the experiment on HL-60(TB) leukemia, 0.274 µM; with HOP-62 NSCLC, 0.524 µM; in the experiment on IGROV1 ovarian, 0.587 µM; in the experiment with K-562 leukemia, 0.28 µM. Moreover, the GI50 in the experiment with M14 melanoma is 0.418 µM; with NCI-H522 lung, 0.329 µM; in the experiment on OVCAR-3 ovarian, 0.277 µM; in the experiment on SNB-19 CNS, 0.534 µM. In addition, the TGI is 18.8 µM in the experiment on 786-0 renal; 13.9 µM in the experiment on HCT-116 colon; 3.47 µM in the experiment with HL-60(TB) leukemia; 16.7 µM in the experiment with HOP-62 NSCLC; 15.8 µM with IGROV1 ovarian; above 38.3 µM in the experiment with K-562 leukemia. Also, the TGI came out at 13.1 µM in the experiment with M14 melanoma, 15.1 µM with NCI-H522 lung, 0.967 µM in the experiment with OVCAR-3 ovarian and 17.1 µM in the experiment with SNB-19 CNS.

For `Nc1ccn(C2CC3OCC3O2)c(=O)n1` (centres undefined), the TGI in the experiment on 786-0 renal, in the experiment with HCT-116 colon, with HL-60(TB) leukemia, with HOP-62 NSCLC, in the experiment on IGROV1 ovarian and in the experiment with K-562 leukemia was above 100 µM in each case. Also, the TGI in the experiment on M14 melanoma, with NCI-H522 lung, with OVCAR-3 ovarian and in the experiment with SNB-19 CNS was above 100 µM in each case.
